Calls of active or inactive are those of the source. The rule behind the calls is not given here.
How the values were obtained:
[1] = tested on: Blood; experiment: Drug level in C57BL/6 mouse blood assessed as acetylsalicylic acid at 260.935 mg/kg, ip measured after 1 hr by LC-MS/MS analysis; assay type: ADME, organism-based; parameters: dose 260.935 mg/kg, route intraperitoneal; settings: in vivo, 260.94 mg/kg
[2] = tested on: Brain; experiment: Drug level in C57BL/6 mouse brain assessed as acetylsalicylic acid at 260.935 mg/kg, ip measured after 1 hr by LC-MS/MS analysis; assay type: ADME, organism-based; parameters: dose 260.935 mg/kg, route intraperitoneal; settings: in vivo, 260.94 mg/kg
[3] = Drug level in C57BL/6 mouse blood at 260.935 mg/kg, ip measured after 1 hr by LC-MS/MS analysis; assay type: ADME, organism-based; parameters: dose 260.935 mg/kg, route intraperitoneal; settings: 260.94 mg/kg, read-out: Drug uptake
[4] = Drug level in C57BL/6 mouse brain at 260.935 mg/kg, ip measured after 1 hr by LC-MS/MS analysis; assay type: ADME, organism-based; parameters: dose 260.935 mg/kg, route intraperitoneal; settings: 260.94 mg/kg, read-out: Drug uptake
[5] = Ratio of drug level in brain to blood assessed as acetylsalicylic acid in C57BL/6 mouse at 260.935 mg/kg, ip measured after 1 hr by LC-MS/MS analysis; assay type: ADME, organism-based; parameters: dose 260.935 mg/kg, route intraperitoneal; settings: 260.94 mg/kg
[6] = tested on: Brain; experiment: Antioxidant activity in Sprague-Dawley rat brain homogenate assessed as attenuation of toxin-induced lipid peroxidation at 1 mM by modified TBA assay; assay type: functional, tissue-based
[7] = Ratio of drug level in brain to blood in C57BL/6 mouse at 260.935 mg/kg, ip measured after 1 hr by LC-MS/MS analysis; assay type: ADME, organism-based; parameters: dose 260.935 mg/kg, route intraperitoneal; settings: 260.94 mg/kg
[8] = Ratio of drug level in brain to blood in C57BL/6 mouse at 150 mg/kg, ip measured after 1 hr by LC-MS/MS analysis; assay type: ADME, organism-based; parameters: dose 150 mg/kg, route intraperitoneal
[9] = Drug level in C57BL/6 mouse brain at 150 mg/kg, ip measured after 1 hr by LC-MS/MS analysis; assay type: ADME, organism-based; parameters: dose 150 mg/kg, route intraperitoneal; settings: read-out: Drug uptake
[10] = Drug level in C57BL/6 mouse blood at 150 mg/kg, ip measured after 1 hr by LC-MS/MS analysis; assay type: ADME, organism-based; parameters: dose 150 mg/kg, route intraperitoneal; settings: read-out: Drug uptake
[11] = Ratio of drug level in brain to blood assessed as salicylic acid in C57BL/6 mouse at 150 mg/kg, ip measured after 1 hr by LC-MS/MS analysis; assay type: ADME, organism-based; parameters: dose 150 mg/kg, route intraperitoneal
[12] = Ratio of drug level in brain to blood assessed as total salicylate in C57BL/6 mouse at 150 mg/kg, ip measured after 1 hr by LC-MS/MS analysis; assay type: ADME, organism-based; parameters: dose 150 mg/kg, route intraperitoneal
[13] = tested on: Brain; experiment: Drug level in C57BL/6 mouse brain assessed as total salicylate at 150 mg/kg, ip measured after 1 hr by LC-MS/MS analysis; assay type: ADME, organism-based; parameters: dose 150 mg/kg, route intraperitoneal; settings: in vivo
[14] = tested on: Blood; experiment: Drug level in C57BL/6 mouse blood assessed as salicylic acid at 150 mg/kg, ip measured after 1 hr by LC-MS/MS analysis; assay type: ADME, organism-based; parameters: dose 150 mg/kg, route intraperitoneal; settings: in vivo
[15] = tested on: Brain; experiment: Drug level in C57BL/6 mouse brain assessed as salicylic acid at 150 mg/kg, ip measured after 1 hr by LC-MS/MS analysis; assay type: ADME, organism-based; parameters: dose 150 mg/kg, route intraperitoneal; settings: in vivo
[16] = tested on: Blood; experiment: Drug level in C57BL/6 mouse blood assessed as total salicylate at 150 mg/kg, ip measured after 1 hr by LC-MS/MS analysis; assay type: ADME, organism-based; parameters: dose 150 mg/kg, route intraperitoneal; settings: in vivo
[17] = tested on: Blood; experiment: Drug level in C57BL/6 mouse blood assessed as ibuprofen at 246.883 mg/kg, ip measured after 1 hr by LC-MS/MS analysis; assay type: ADME, organism-based; parameters: dose 246.883 mg/kg, route intraperitoneal; settings: in vivo, 246.88 mg/kg
[18] = Ratio of drug level in brain to blood assessed as ibuprofen in C57BL/6 mouse at 246.883 mg/kg, ip measured after 1 hr by LC-MS/MS analysis; assay type: ADME, organism-based; parameters: dose 246.883 mg/kg, route intraperitoneal; settings: 246.88 mg/kg
[19] = tested on: Brain; experiment: Drug level in C57BL/6 mouse brain assessed as ibuprofen at 246.883 mg/kg, ip measured after 1 hr by LC-MS/MS analysis; assay type: ADME, organism-based; parameters: dose 246.883 mg/kg, route intraperitoneal; settings: in vivo, 246.88 mg/kg
[20] = tested on: Blood; experiment: Drug level in C57BL/6 mouse blood assessed as ibuprofen at 305.08 mg/kg, ip measured after 1 hr by LC-MS/MS analysis; assay type: ADME, organism-based; parameters: dose 305.08 mg/kg, route intraperitoneal; settings: in vivo
[21] = Ratio of drug level in brain to blood assessed as ibuprofen in C57BL/6 mouse at 305.08 mg/kg, ip measured after 1 hr by LC-MS/MS analysis; assay type: ADME, organism-based; parameters: dose 305.08 mg/kg, route intraperitoneal
[22] = tested on: Brain; experiment: Drug level in C57BL/6 mouse brain assessed as ibuprofen at 305.08 mg/kg, ip measured after 1 hr by LC-MS/MS analysis; assay type: ADME, organism-based; parameters: dose 305.08 mg/kg, route intraperitoneal; settings: in vivo
[23] = tested on: Blood; experiment: Drug level in C57BL/6 mouse blood assessed as acetylsalicylic acid at 327.58 mg/kg, ip measured after 1 hr by LC-MS/MS analysis; assay type: ADME, organism-based; parameters: dose 327.58 mg/kg, route intraperitoneal; settings: in vivo
[24] = Ratio of drug level in brain to blood assessed as acetylsalicylic acid in C57BL/6 mouse at 327.58 mg/kg, ip measured after 1 hr by LC-MS/MS analysis; assay type: ADME, organism-based; parameters: dose 327.58 mg/kg, route intraperitoneal
[25] = tested on: Brain; experiment: Drug level in C57BL/6 mouse brain assessed as acetylsalicylic acid at 327.58 mg/kg, ip measured after 1 hr by LC-MS/MS analysis; assay type: ADME, organism-based; parameters: dose 327.58 mg/kg, route intraperitoneal; settings: in vivo

For CC(=O)Oc1ccccc1C(=O)NC12CC3CC(CC(C3)C1)C2, the Drug uptake [1] was 13.84 ng/mL, the Drug uptake [2] was 6.81 ng/mL and the concentration at 1 h [3] was 17.4 ng/mL. The concentration at 1 h [4] was 8.58 ng/mL, the Ratio [5] was 0.49 and the Activity [6] was “Active”. For the same compound, the Kp at 1 h [7] was 0.49.
CC(=O)Oc1ccccc1C(=O)O [ASPIRIN] gave a Kp at 1 h [8] of 0.49, a concentration at 1 h [9] of 22.5 ng/mL and a concentration at 1 h [10] of 45.5 ng/mL. For the same compound, the Ratio [11] was 1.06, the Ratio [12] was 0.59 and the Drug uptake [13] was 24.6 ng/mL. The Drug uptake [14] was 6.95 ng/mL, the Activity [6] was “Active” and the Drug uptake [15] was 7.37 ng/mL. For the same compound, the Drug uptake [16] was 41.45 ng/mL.
For CC(C)Cc1ccc(C(C)C(=O)NC23CC4CC(CC(C4)C2)C3)cc1 (stereo not drawn), the Activity [6] was “Active”, the Drug uptake [17] was 30.45 ng/mL and the Ratio [18] was 0.39. It also gave a Drug uptake [19] of 11.83 ng/mL.
With CC(C)Cc1ccc(C(C)C(=O)OC23C4C5CC6C7C5C2C7C2(OCCCN23)C64)cc1 (stereo not drawn) the Drug uptake [20] was 40.28 ng/mL, the Activity [6] was “Active” and the Ratio [21] was 1.39. The Drug uptake [22] was 55.8 ng/mL.
For CC(=O)Oc1ccccc1C(=O)OC12C3C4CC5C6C4C1C6C1(OCCCN12)C53 (stereo not drawn), the Drug uptake [23] was 44.11 ng/mL, the Ratio [24] was 1.34 and the Activity [6] was “Active”. The Drug uptake [25] was 59.03 ng/mL.
For CC(C)Cc1ccc(C(C)C(=O)O)cc1 (stereo not drawn) [IBUPROFEN], the concentration at 1 h [3] was 61.4 ng/mL, the concentration at 1 h [4] was 52.5 ng/mL and the Activity [6] was “Active”. It also gave a Kp at 1 h [7] of 0.9.
